What was measured:
[1] = molecular target: Beta-2 adrenergic receptor (Cavia porcellus) (UniProt Q8K4Z4)
Description: In vitro beta-2 duration was determined using electrically stimulated guinea-pig isolated trachea superfusion system

[2] = molecular target: Beta-2 adrenergic receptor (Cavia porcellus) (UniProt Q8K4Z4); conditions: Trachea
Description: Beta-2-adrenoceptor potency was determined in rings of guinea-pig isolated trachea

physchem [3] = conditions: octanol/water, pH 7.4, logD
physchem [4] = assay: physchem
Description: Ionization constant (pKa)

Beta-2 adrenergic receptor (Cavia porcellus), sequence (Q8K4Z4 whole entry, looked up): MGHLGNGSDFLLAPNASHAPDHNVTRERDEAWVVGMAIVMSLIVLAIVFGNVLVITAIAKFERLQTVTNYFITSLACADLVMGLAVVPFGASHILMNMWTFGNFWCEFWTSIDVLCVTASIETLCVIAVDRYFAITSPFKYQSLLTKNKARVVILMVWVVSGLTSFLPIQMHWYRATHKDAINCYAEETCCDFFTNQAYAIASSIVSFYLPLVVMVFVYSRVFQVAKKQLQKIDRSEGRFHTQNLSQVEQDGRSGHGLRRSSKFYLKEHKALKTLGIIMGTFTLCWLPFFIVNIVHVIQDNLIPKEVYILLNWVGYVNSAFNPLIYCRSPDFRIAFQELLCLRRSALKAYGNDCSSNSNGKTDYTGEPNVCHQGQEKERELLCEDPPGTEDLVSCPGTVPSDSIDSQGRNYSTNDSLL

| Compound | Beta2 duration [1] | p[A]50 [2] | logD (physchem [3]) | pKa (physchem [4]) |
| --- | --- | --- | --- | --- |
| O=S(=O)(CCCNCCc1ccc(O)c2nc(O)sc12)CCOCCCc1ccccc1 | > 180 min | 8.69 | 2.1 | > 8 |
| O=S(=O)(CCCNCCc1ccc(O)c2nc(O)sc12)NCCSCCc1ccccc1 | 180 min |  | 1.77 | > 8 |
| COc1ccc(CCOCCCS(=O)(=O)CCNCCc2ccc(O)c3nc(O)sc23)cc1 | 60 min |  |  | < 8 |
| O=S(=O)(CCCOCCc1nccs1)CCNCCc1ccc(O)c2nc(O)sc12 | 45 min | 7.72 | 2.35 | < 8 |
| CC(C)(CCCCCOCCc1ccccc1)NCCc1ccc(O)c2nc(O)sc12 | > 180 min | 8.42 |  | > 8 |
| NC(=O)c1ccc(CCOCCCS(=O)(=O)CCNCCc2ccc(O)c3nc(O)sc23)cc1 | 50 min | 7.54 | 1.1 | < 8 |
| C[C@@H](Cc1ccccc1)OCCCS(=O)(=O)CCNCCc1ccc(O)c2nc(O)sc12 | 180 min |  | 1.81 | > 8 |
| Oc1nc2c(O)ccc(CCNCCCCCOCCc3ccccc3)c2s1 | > 180 min | 7.8 |  | > 8 |
| Cc1ccc(CCCOCCS(=O)(=O)CCCNCCc2ccc(O)c3nc(O)sc23)s1 | > 180 min |  | 2.41 | > 8 |
| Cc1cc(C)cc(CCOCNS(=O)(=O)CCCNCCc2ccc(O)c3nc(O)sc23)c1 | > 180 min |  |  | > 8 |
| Oc1nc2c(O)ccc(CCNCCCCCCOCCc3ccccn3)c2s1 | 109 min | 8.12 |  | > 8 |
| CCCN(CCCOCCOCCc1ccccc1)CCc1ccc(O)c2nc(O)sc12 | > 180 min |  |  | > 8 |
| O=S(=O)(CCCNCCc1ccc(O)c2nc(O)sc12)NCCOCCc1ccc(F)cc1 | 150 min |  | 1.57 | > 8 |
| Oc1nc2c(O)ccc(CCNCCCCCCOCCc3nccs3)c2s1 | > 180 min | 7.78 |  | > 8 |
| NC(=O)Nc1ccc(CCOCCCCCCNCCc2ccc(O)c3nc(O)sc23)cc1 | 140 min | 9.2 |  | > 8 |
| O=S(=O)(CCCOCCc1nccc2ccccc12)CCNCCc1ccc(O)c2nc(O)sc12 | 50 min |  | 2.35 | < 8 |
| Oc1nc2c(O)ccc(CCNCCCSCCCOCCc3ccccc3)c2s1 | > 180 min | 7.32 |  | > 8 |
| CC(C)(CCCCOCCc1cccc(N)c1)CNCCc1ccc(O)c2nc(O)sc12 | > 180 min | 8.39 |  | > 8 |
| CN(CCc1ccc(O)c2nc(O)sc12)CCN(C)C(=O)CCOCCc1ccccc1 | > 180 min |  |  |  |
| CC(C)(CCCCOCCc1ccccc1N)CNCCc1ccc(O)c2nc(O)sc12 | > 180 min | 7.58 |  | > 8 |
| CCN(CCCOCCOCCc1ccccc1)CCc1ccc(O)c2nc(O)sc12 | > 180 min |  |  | > 8 |
| CC(C)(CCCCOCCc1ccc(N)cc1)CNCCc1ccc(O)c2nc(O)sc12 | > 180 min | 8.86 |  | > 8 |
| CN(CCc1ccc(O)c2[nH]c(=O)sc12)CCN(C)C(=O)CCOCCc1ccccc1 |  |  |  | > 8 |
| Cc1ccccc1CCOCCCS(=O)(=O)CCNCCc1ccc(O)c2nc(O)sc12 | 160 min |  |  | < 8 |
| O=S(=O)(CCCOCCc1ccccc1)NCCNCCc1ccc(O)c2nc(O)sc12 | 180 min |  | 1.83 | > 8 |
| C[C@@H](COCCCS(=O)(=O)CCNCCc1ccc(O)c2nc(O)sc12)c1ccccc1 | 60 min |  | 2.32 | < 8 |
| CS(=O)(=O)Nc1ccc(CCOCCCS(=O)(=O)CCNCCc2ccc(O)c3nc(O)sc23)cc1 | 40 min |  | 1.34 | < 8 |
| O=S(=O)(CCCOCCc1ccc(F)cc1)CCNCCc1ccc(O)c2nc(O)sc12 | 67 min | 7.92 |  | < 8 |

| Compound | Beta2 duration [1] | p[A]50 [2] | logD (physchem [3]) | pKa (physchem [4]) |
| --- | --- | --- | --- | --- |
| CN(CCNCCc1ccc(O)c2nc(O)sc12)C(=O)CCOCCc1ccccc1 | 116 min | 8.29 |  |  |
| O=S(=O)(CCCOCCNc1ccccc1)CCNCCc1ccc(O)c2nc(O)sc12 | 40 min |  |  | < 8 |
| Cc1cc(C)cc(CCOCCS(=O)(=O)NCCNCCc2ccc(O)c3nc(O)sc23)c1 | > 180 min |  | 2.59 | > 8 |
| O=S(=O)(CCOCCCc1ccccc1)NCCNCCc1ccc(O)c2nc(O)sc12 | > 180 min |  | 2.22 | > 8 |
| O=S(=O)(CCCNCCc1ccc(O)c2nc(O)sc12)CCNCCc1ccccc1 | 18 min | 7.88 |  | > 8 |
| O=S(=O)(CCCNCCc1ccc(O)c2nc(O)sc12)CCOCc1ccccc1 | 60 min |  | 1.15 | > 8 |
| Oc1nc2c(O)ccc(CCNCCCCCOCCCc3ccccc3)c2s1 | > 180 min | 7 |  | > 8 |
| Oc1ccc(CCOCCCCCCNCCc2ccc(O)c3nc(O)sc23)cc1 | > 180 min | 8.81 |  | > 8 |
| O=S(=O)(CCCNCCc1ccc(O)c2nc(O)sc12)NCCOCCc1cccc(C(F)(F)F)c1 | > 180 min |  | 2.62 | > 8 |
| CN(CCNCCc1ccc(O)c2[nH]c(=O)sc12)C(=O)CCOCCc1ccccc1 |  |  | 1.52 | > 8 |
| O=S(=O)(CCCNCCc1ccc(O)c2nc(O)sc12)NCCOCCSc1ccccc1 | 180 min |  | 1.84 | > 8 |
| Cc1ccc(CCOCCNS(=O)(=O)CCCNCCc2ccc(O)c3nc(O)sc23)cc1 | > 180 min |  | 2.07 | > 8 |
| O=S(=O)(CCCOCCc1cc2ccccc2o1)CCNCCc1ccc(O)c2nc(O)sc12 | 160 min |  | 2.86 | < 8 |
| Cc1ccc(CCOCCCS(=O)(=O)CCNCCc2ccc(O)c3nc(O)sc23)nc1 | 40 min |  | 1.56 | < 8 |
| O=S(=O)(CCOCc1cccc2ccccc12)NCCCNCCc1ccc(O)c2nc(O)sc12 | 180 min |  | 1.69 | > 8 |
| O=S(=O)(CCCOCCSc1ccccc1)CCNCCc1ccc(O)c2nc(O)sc12 | 120 min |  | 2.68 | < 8 |
| Oc1nc2c(O)ccc(CCNCCCSCCOCCc3cccc4ccccc34)c2s1 | > 180 min | 5.8 |  | > 8 |
| O=S(=O)(CCCNCCc1ccc(O)c2nc(O)sc12)NCCOCCc1cccc(Cl)c1 | 180 min |  | 1.92 | > 8 |
| CSc1cccc(CCOCCS(=O)(=O)CCCNCCc2ccc(O)c3nc(O)sc23)c1 | 150 min |  | 1.63 | > 8 |
| CC(C)(CCCCOCCc1ccc(O)cc1)CNCCc1ccc(O)c2nc(O)sc12 | > 180 min | 9.03 |  | > 8 |
| CC(CCCCCOCCc1ccccc1)NCCc1ccc(O)c2nc(O)sc12 (stereo not given) | > 180 min | 8.08 |  | > 8 |
| Cc1ncsc1CCOCCCS(=O)(=O)CCNCCc1ccc(O)c2nc(O)sc12 | 40 min |  | 1.44 | < 8 |
| CC(C)(CCCCOCCc1ccc([N+](=O)[O-])cc1)CNCCc1ccc(O)c2nc(O)sc12 | > 180 min | 6.35 |  | > 8 |
| CN(CCCOCCOCCc1ccccc1)CCc1ccc(O)c2nc(O)sc12 | > 180 min |  |  | > 8 |
| Nc1ccc(CCOCCCCCCNCCc2ccc(O)c3nc(O)sc23)cc1 | > 180 min | 9.4 |  | > 8 |
| N#Cc1ccc(CCOCCCS(=O)(=O)CCNCCc2ccc(O)c3nc(O)sc23)cc1 | 40 min |  | 2 | < 8 |
| CN(CCCNCCc1ccc(O)c2nc(O)sc12)S(=O)(=O)CCOCCc1ccccc1 | 60 min |  | 1.24 | > 8 |
